Patent US8492376B2, “Heteroaryl-cyclohexyl-tetraazabenzo[e]azulenes” (Hoffmann-La Roche Inc., priority 2010, dated 2013)
Where a name gives a salt, the structure may show the parent alone.

Biological target: T1, human V1a receptor (Homo sapiens, UniProt P37288)
T1 construct: expressed in transfected cells; host or cells: HEK293 cells, transiently transfected; cell membranes
Assay: human V1a receptor binding studies (3H-Vasopressin, SPA beads)
Conditions: membranes from HEK293 cells transiently transfected with human V1a receptor, Ki calculated from IC50 by the Cheng-Prussoff equation, read-out: pKi (hV1a) (converted)
Description: The human V1a receptor was cloned by RT-PCR from total human liver RNA. The coding sequence was subcloned in an expression vector after sequencing to confirm the identity of the amplified sequence. […] Cell membranes were prepared from HEK293 cells transiently transfected with the expression vector and grown in 20 liter fermenters with the following protocol.
50 g of cells are resuspended in 30 ml freshly prepared ice cold Lyses buffer (50 mM HEPES, 1 mM EDTA, 10 mM magnesium dichloride adjusted to pH=7.4+complete cocktail of protease inhibitor (Roche Diagnostics)). Homogenized with Polytron for 1 min and solicited on ice for 2×2 minutes at 80% intensity (Vibrate solicitor). The preparation is centrifuged 20 min at 500 g at 4° C., the pellet is discarded and the supernatant centrifuged 1 hour at 43′000 g at 4° C. (19′000 rpm). The pellet is resuspended in 12.5 ml Lyses buffer+12.5 ml sucrose 20% and homogenized using a Polytron for 1-2 min. The protein concentration is determined by the Bradford method and aliquots are stored at −80° C. until use. For binding studies 60 mg Yttrium silicate SPA beads (Habersham®) are mixed with an aliquot of membrane in binding buffer (50 mM Tris, 120 mM sodium chloride, 5 mM potassium chloride, 2 mM calcium dichloride, 10 mM magnesium dichloride) for 15 minutes with mixing. 50 μl of bead/membrane mixture is then added to each well of a 96 well plate, followed by 50 μl of 4 nM 3H-Vasopressin (American Radiolabeled Chemicals). For total binding measurement 100 μl of binding buffer are added to the respective wells, for non-specific binding 100 μl of 8.4 mM cold vasopressin and for compound testing 100 μl of a serial dilution of each compound in 2% dimethyl sulfoxide. The plate is incubated 1 h at room temperature, centrifuged 1 min at 1000 g and counted on a Packard Top-Count. Non-specific binding counts are subtracted from each well and data is normalized to the maximum specific binding set at 100%. To calculate an IC50 the curve is fitted using a non-linear regression model (XLfit) and the Ki is calculated using the Cheng-Prussoff equation.

T1 sequence (P37288 whole entry): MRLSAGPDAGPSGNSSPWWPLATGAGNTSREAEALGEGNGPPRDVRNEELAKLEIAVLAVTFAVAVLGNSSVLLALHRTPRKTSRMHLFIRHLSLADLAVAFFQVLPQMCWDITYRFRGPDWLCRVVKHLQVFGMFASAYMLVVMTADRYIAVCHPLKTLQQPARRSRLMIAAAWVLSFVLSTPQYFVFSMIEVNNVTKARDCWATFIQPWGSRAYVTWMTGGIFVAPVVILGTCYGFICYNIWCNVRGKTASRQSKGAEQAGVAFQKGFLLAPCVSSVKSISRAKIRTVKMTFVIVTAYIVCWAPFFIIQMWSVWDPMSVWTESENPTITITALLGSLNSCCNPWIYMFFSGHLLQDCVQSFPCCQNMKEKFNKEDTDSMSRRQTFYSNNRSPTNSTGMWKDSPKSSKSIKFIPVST

SMILES | Ki [nM]
Fc1ccc2c(c1)CNCc1nnc([C@H]3CC[C@H](c4ncccc4F)CC3)n1-2 [Example 43, trans-8-Fluoro-[4-(3-fluoro-pyridin-2-yl)-cyclohexyl]-5,6-dihydro-4H-2,3,5,10b-tetraaza-benzo[e]azulene] | 24.5
COc1cccc([C@H]2CC[C@H](c3nnc4n3-c3ccc(Cl)cc3CN(C)C4)CC2)n1 [Example 15, trans-8-Chloro-1-[4-(6-methoxy-pyridin-2-yl)-cyclohexyl]-5-methyl-5,6-dihydro-4H-2,3,5,10b-tetraaza-benzo[e]azulene] | 3.31
Fc1ccc([C@H]2CC[C@H](c3nnc4n3-c3ccc(Cl)cc3CNC4)CC2)nc1 [Example 23, trans-8-Chloro-1-[4-(5-fluoro-pyridin-2-yl)-cyclohexyl]-5,6-dihydro-4H-2,3,5,10b-tetraaza-benzo[e]azulene dihydrochloride] | 7.24
CN1Cc2cc(Cl)ccc2-n2c(nnc2[C@H]2CC[C@H](c3ncccn3)CC2)C1 [Example 60, trans-8-Chloro-5-methyl-1-(4-pyrimidin-2-yl-cyclohexyl)-5,6-dihydro-4H-2,3,5,10b-tetraaza-benzo[e]azulene] | 2.19
CN1Cc2cc(Cl)ccc2-n2c(nnc2[C@H]2CC[C@H](c3cccnc3Cl)CC2)C1 [Example 53, trans-8-Chloro-1-[4-(2-chloro-pyridin-3-yl)-cyclohexyl]-5-methyl-5,6-dihydro-4H-2,3,5,10b-tetraaza-benzo[e]azulene] | 13.8
Cc1cncc([C@H]2CC[C@H](c3nnc4n3-c3ccc(Cl)cc3CN(C)C4)CC2)n1 [Example 74, trans-8-Chloro-5-methyl-1-[4-(6-methyl-pyrazin-2-yl)-cyclohexyl]-5,6-dihydro-4H-2,3,5,10b-tetraaza-benzo[e]azulene] | 11.2
CN1Cc2cc(Cl)ccc2-n2c(nnc2[C@H]2CC[C@H](c3cc(Cl)ccn3)CC2)C1 [Example 27, trans-8-Chloro-1-[4-(4-chloro-pyridin-2-yl)-cyclohexyl]-5-methyl-5,6-dihydro-4H-2,3,5,10b-tetraaza-benzo[e]azulene] | 0.537
Fc1cccnc1[C@H]1CC[C@@H](c2nnc3n2-c2ccc(Cl)cc2CNC3)CC1 [Example 46, cis-8-Chloro-1-[4-(3-fluoro-pyridin-2-yl)-cyclohexyl]-5,6-dihydro-4H-2,3,5,10b-tetraaza-benzo[e]azulene] | 200
Cc1nccc([C@H]2CC[C@H](c3nnc4n3-c3ccc(Cl)cc3CN(C)C4)CC2)n1 [Example 68, trans-8-Chloro-5-methyl-1-[4-(2-methyl-pyrimidin-4-yl)-cyclohexyl]-5,6-dihydro-4H-2,3,5,10b-tetraaza-benzo[e]azulene] | 126
COc1cccc([C@H]2CC[C@H](c3nnc4n3-c3ccc(Cl)cc3CN(C(=O)OC(C)(C)C)C4)CC2)n1 [Example 13, trans-8-Chloro-1-[4-(6-methoxy-pyridin-2-yl)-cyclohexyl]-4H,6H-2,3,5,10b-tetraaza-benzoazulene-5-carboxylic acid tert-butyl ester] | 0.501
Fc1cccnc1[C@H]1CC[C@H](c2nnc3n2-c2ccc(Cl)cc2CN(C2CCC2)C3)CC1 [Example 33, trans-8-Chloro-5-cyclobutyl-[4-(3-fluoro-pyridin-2-yl)-cyclohexyl]-5,6-dihydro-4H-2,3,5,10b-tetraaza-benzo[e]azulene] | 0.302
Cc1nccnc1[C@H]1CC[C@H](c2nnc3n2-c2ccc(Cl)cc2CN(C(=O)OC(C)(C)C)C3)CC1 [Example 75, trans-8-Chloro-1-[4-(3-methyl-pyrazin-2-yl)-cyclohexyl]-4H,6H-2,3,5,10b-tetraaza-benzo[e]azulene-5-carboxylic acid tert-butyl ester] | 1.2
CC(C)(C)OC(=O)N1Cc2cc(Cl)ccc2-n2c(nnc2[C@H]2CC[C@H](c3ncc(F)cc3F)CC2)C1 [Example 85, trans-8-Chloro-1-[4-(3,5-difluoro-pyridin-2-yl)-cyclohexyl]-4H,6H-2,3,5,10b-tetraaza-benzo[e]azulene-5-carboxylic acid tert-butyl ester] | 1.1
Clc1ccc2c(c1)CNCc1nnc([C@H]3CC[C@H](c4ccccn4)CC3)n1-2 [Example 2, trans-8-Chloro-1-(4-pyridin-2-yl-cyclohexyl)-5,6-dihydro-4H-2,3,5,10b-tetraaza-benzo[e]azulene dihydrochloride] | 10
Cc1nccc([C@H]2CC[C@H](c3nnc4n3-c3ccc(Cl)cc3CN(C(=O)OC(C)(C)C)C4)CC2)n1 [Example 66, trans-8-Chloro-1-[4-(2-methyl-pyrimidin-4-yl)-cyclohexyl]-4H,6H-2,3,5,10b-tetraaza-benzo[e]azulene-5-carboxylic acid tert-butyl ester] | 9.77
CC(C)(C)OC(=O)N1Cc2cc(Cl)ccc2-n2c(nnc2[C@H]2CC[C@H](c3ncccn3)CC2)C1 [Example 57, trans-8-Chloro-1-(4-pyrimidin-2-yl-cyclohexyl)-4H,6H-2,3,5,10b-tetraaza-benzo[e]azulene-5-carboxylic acid tert-butyl ester] | 1.58
Cc1cccc([C@H]2CC[C@H](c3nnc4n3-c3ccc(Cl)cc3CNC4)CC2)n1 [Example 5, trans-8-Chloro-1-[4-(6-methyl-pyridin-2-yl)-cyclohexyl]-5,6-dihydro-4H-2,3,5,10b-tetraaza-benzo[e]azulene] | 13.8
CC(C)(C)OC(=O)N1Cc2cc(Cl)ccc2-n2c(nnc2[C@H]2CC[C@H](c3ncccc3F)CC2)C1 [Example 28, trans-8-Chloro-1-[4-(3-fluoro-pyridin-2-yl)-cyclohexyl]-4H,6H-2,3,5,10b-tetraaza-benzo[e]azulene-5-carboxylic acid tert-butyl ester] | 0.2
CC(C)(C)OC(=O)N1Cc2cc(Cl)ccc2-n2c(nnc2[C@H]2CC[C@H](c3ncccc3Cl)CC2)C1 [Example 82, trans-8-Chloro-1-[4-(3-chloro-pyridin-2-yl)-cyclohexyl]-4H,6H-2,3,5,10b-tetraaza-benzo[e]azulene-5-carboxylic acid tert-butyl ester] | 0.501
CC(C)(C)OC(=O)N1Cc2cc(Cl)ccc2-n2c(nnc2[C@H]2CC[C@H](c3cnccn3)CC2)C1 [Example 69, trans-8-Chloro-1-(4-pyrazin-2-yl-cyclohexyl)-4H,6H-2,3,5,10b-tetraaza-benzo[e]azulene-5-carboxylic acid tert-butyl ester] | 0.603
Fc1cnc([C@H]2CC[C@H](c3nnc4n3-c3ccc(Cl)cc3CNC4)CC2)c(F)c1 [Example 86, trans-8-Chloro-1-[4-(3,5-difluoro-pyridin-2-yl)-cyclohexyl]-5,6-dihydro-4H-2,3,5,10b-tetraaza-benzo[e]azulene] | 9.33
CN(C)S(=O)(=O)N1Cc2cc(Cl)ccc2-n2c(nnc2[C@H]2CC[C@H](c3ncccc3F)CC2)C1 [Example 41, trans-8-Chloro-1-[4-(3-fluoro-pyridin-2-yl)-cyclohexyl]-4H,6H-2,3,5,10b-tetraaza-benzo[e]azulene-5-sulfonic acid dimethylamide] | 0.603
Cc1cccc([C@H]2CC[C@H](c3nnc4n3-c3ccc(Cl)cc3CN(C)C4)CC2)n1 [Example 6, trans-8-Chloro-1-[4-(6-methyl-pyridin-2-yl)-cyclohexyl]-5-methyl-5,6-dihydro-4H-2,3,5,10b-tetraaza-benzo[e]azulene] | 0.891
